Data published in ChEMBL document CHEMBL3885881, “DrugMatrix”.

Species: Rattus norvegicus
Test: DrugMatrix - Regimen: Daily Repeat
Type: toxicity, organism-based, Sprague-Dawley
Parameters: regimen Daily Repeat, gender Male, age 6-8 weeks
Conditions: in vivo, po, route oral GAVAGE, vehicle .5 % CMC; for BASOPHIL / EOSINOPHIL / ERYTHROCYTE COUNT / HEMATOCRIT / HEMOGLOBIN / LEUKOCYTE COUNT / LYMPHOCYTE / MEAN CORPUSCULAR HEMOGLOBIN / MEAN CORPUSCULAR HEMOGLOBIN CONCENTRATION / MEAN CORPUSCULAR VOLUME / MONOCYTE / NEUTROPHIL / PLATELET COUNT: tissue Blood; for ALANINE AMINOTRANSFERASE / ALKALINE PHOSPHATASE / ASPARTATE AMINOTRANSFERASE / BLOOD UREA NITROGEN / CHLORIDE / CHOLESTEROL / CREATINE PHOSPHOKINASE / CREATININE / GLUCOSE / PHOSPHORUS / POTASSIUM / SODIUM / TOTAL BILIRUBIN / TOTAL PROTEIN: tissue Plasma
[1] = 0 mg/kg, 72 h, dose level Control, time 3 day
[2] = 0 mg/kg, 120 h, dose level Control, time 5 day
[3] = 20 mg/kg, 72 h, dose level Low, time 3 day
[4] = 20 mg/kg, 120 h, dose level Low, time 5 day
[5] = 95 mg/kg, 72 h, dose level High, time 3 day
[6] = 95 mg/kg, 120 h, dose level High, time 5 day

For `CN1CCN(C2=Nc3cc(Cl)ccc3Nc3ccccc32)CC1` [CLOZAPINE], the BASOPHIL [1] was 0%, the EOSINOPHIL [1] was 0.33% and the “ERYTHROCYTE COUNT” value [1] was 6.2 x10E6/uL. For the same molecule, the HEMATOCRIT [1] was 38.08%, the HEMOGLOBIN [1] was 14.92 G/DL and the “LEUKOCYTE COUNT” value [1] was 11.13 x10E3/uL. The LYMPHOCYTE [1] was 76%, the “MEAN CORPUSCULAR HEMOGLOBIN” value [1] was 24.1 pg and the “MEAN CORPUSCULAR HEMOGLOBIN CONCENTRATION” value [1] was 39.17 G/DL. The “MEAN CORPUSCULAR VOLUME” value [1] was 61.48 fL, the MONOCYTE [1] was 3.83% and the NEUTROPHIL [1] was 19.83%. For the same molecule, the “PLATELET COUNT” value [1] was 1327.5 x10E3/uL, the “ALANINE AMINOTRANSFERASE” value [1] was 40.17 u/L and the “ALKALINE PHOSPHATASE” value [1] was 372 u/L. The “ASPARTATE AMINOTRANSFERASE” value [1] was 67.17 u/L, the “BLOOD UREA NITROGEN” value [1] was 18.83 mg/dL and the CHLORIDE [1] was 105.17 MEQ/L. For the same molecule, the CHOLESTEROL [1] was 78.17 mg/dL, the “CREATINE PHOSPHOKINASE” value [1] was 149.17 u/L and the CREATININE [1] was 0.57 mg/dL. It also gave a GLUCOSE [1] of 185.17 mg/dL, a PHOSPHORUS [1] of 11.43 mg/dL and a POTASSIUM [1] of 6.78 MEQ/L. For the same molecule, the SODIUM [1] was 152.83 MEQ/L, the “TOTAL BILIRUBIN” value [1] was 0.4 mg/dL and the “TOTAL PROTEIN” value [1] was 6.87 G/DL. For the same molecule, the BASOPHIL [2] was 0%, the EOSINOPHIL [2] was 0% and the “ERYTHROCYTE COUNT” value [2] was 6.05 x10E6/uL. The HEMATOCRIT [2] was 36.55%, the HEMOGLOBIN [2] was 14.7 G/DL and the “LEUKOCYTE COUNT” value [2] was 11.8 x10E3/uL. For the same molecule, the LYMPHOCYTE [2] was 86.83%, the “MEAN CORPUSCULAR HEMOGLOBIN” value [2] was 24.37 pg and the “MEAN CORPUSCULAR HEMOGLOBIN CONCENTRATION” value [2] was 40.32 G/DL. The “MEAN CORPUSCULAR VOLUME” value [2] was 60.47 fL, the MONOCYTE [2] was 0.83% and the NEUTROPHIL [2] was 12.33%. For the same molecule, the “PLATELET COUNT” value [2] was 1177 x10E3/uL, the “ALANINE AMINOTRANSFERASE” value [2] was 41.83 u/L and the “ALKALINE PHOSPHATASE” value [2] was 377.5 u/L. For the same molecule, the “ASPARTATE AMINOTRANSFERASE” value [2] was 60.83 u/L, the “BLOOD UREA NITROGEN” value [2] was 16 mg/dL and the CHLORIDE [2] was 105.67 MEQ/L. For the same molecule, the CHOLESTEROL [2] was 67.83 mg/dL, the “CREATINE PHOSPHOKINASE” value [2] was 120.33 u/L and the CREATININE [2] was 0.6 mg/dL. It also gave a GLUCOSE [2] of 167.67 mg/dL, a PHOSPHORUS [2] of 10.03 mg/dL and a POTASSIUM [2] of 6.68 MEQ/L. The SODIUM [2] was 150.5 MEQ/L, the “TOTAL BILIRUBIN” value [2] was 0.57 mg/dL and the “TOTAL PROTEIN” value [2] was 6.25 G/DL. For the same molecule, the BASOPHIL [3] was 0%, the EOSINOPHIL [3] was 0.5% and the “ERYTHROCYTE COUNT” value [3] was 5.3 x10E6/uL. For the same molecule, the HEMATOCRIT [3] was 33.4%, the HEMOGLOBIN [3] was 12.8 G/DL and the “LEUKOCYTE COUNT” value [3] was 10.25 x10E3/uL. For the same molecule, the LYMPHOCYTE [3] was 83.5%, the “MEAN CORPUSCULAR HEMOGLOBIN” value [3] was 24.2 pg and the “MEAN CORPUSCULAR HEMOGLOBIN CONCENTRATION” value [3] was 38.35 G/DL. For the same molecule, the “MEAN CORPUSCULAR VOLUME” value [3] was 62.95 fL, the MONOCYTE [3] was 0% and the NEUTROPHIL [3] was 16%. The “PLATELET COUNT” value [3] was 1071.5 x10E3/uL, the “ALANINE AMINOTRANSFERASE” value [3] was 33.33 u/L and the “ALKALINE PHOSPHATASE” value [3] was 312 u/L. The “ASPARTATE AMINOTRANSFERASE” value [3] was 54 u/L, the “BLOOD UREA NITROGEN” value [3] was 13.33 mg/dL and the CHLORIDE [3] was 104.33 MEQ/L. The CHOLESTEROL [3] was 84.67 mg/dL, the “CREATINE PHOSPHOKINASE” value [3] was 145.33 u/L and the CREATININE [3] was 0.57 mg/dL. For the same molecule, the GLUCOSE [3] was 148.67 mg/dL, the PHOSPHORUS [3] was 11.43 mg/dL and the POTASSIUM [3] was 6.5 MEQ/L. The SODIUM [3] was 149 MEQ/L, the “TOTAL BILIRUBIN” value [3] was 0.3 mg/dL and the “TOTAL PROTEIN” value [3] was 5.9 G/DL. For the same molecule, the BASOPHIL [4] was 0%, the EOSINOPHIL [4] was 0% and the “ERYTHROCYTE COUNT” value [4] was 6.24 x10E6/uL. The HEMATOCRIT [4] was 37.73%, the HEMOGLOBIN [4] was 14.93 G/DL and the “LEUKOCYTE COUNT” value [4] was 15.97 x10E3/uL. The LYMPHOCYTE [4] was 93.67%, the “MEAN CORPUSCULAR HEMOGLOBIN” value [4] was 23.97 pg and the “MEAN CORPUSCULAR HEMOGLOBIN CONCENTRATION” value [4] was 39.57 G/DL. For the same molecule, the “MEAN CORPUSCULAR VOLUME” value [4] was 60.57 fL, the MONOCYTE [4] was 1.33% and the NEUTROPHIL [4] was 5%. For the same molecule, the “PLATELET COUNT” value [4] was 1152.67 x10E3/uL, the “ALANINE AMINOTRANSFERASE” value [4] was 36.67 u/L and the “ALKALINE PHOSPHATASE” value [4] was 370 u/L. For the same molecule, the “ASPARTATE AMINOTRANSFERASE” value [4] was 55.67 u/L, the “BLOOD UREA NITROGEN” value [4] was 13 mg/dL and the CHLORIDE [4] was 106 MEQ/L. For the same molecule, the CHOLESTEROL [4] was 72.33 mg/dL, the “CREATINE PHOSPHOKINASE” value [4] was 147.67 u/L and the CREATININE [4] was 0.57 mg/dL. It also gave a GLUCOSE [4] of 152.33 mg/dL, a PHOSPHORUS [4] of 11.4 mg/dL and a POTASSIUM [4] of 6.5 MEQ/L. For the same molecule, the SODIUM [4] was 149 MEQ/L, the “TOTAL BILIRUBIN” value [4] was 0.3 mg/dL and the “TOTAL PROTEIN” value [4] was 5.87 G/DL. For the same molecule, the BASOPHIL [5] was 0%, the EOSINOPHIL [5] was 0.33% and the “ERYTHROCYTE COUNT” value [5] was 6.22 x10E6/uL. The HEMATOCRIT [5] was 37.83%, the HEMOGLOBIN [5] was 14.53 G/DL and the “LEUKOCYTE COUNT” value [5] was 10.53 x10E3/uL. The LYMPHOCYTE [5] was 81.33%, the “MEAN CORPUSCULAR HEMOGLOBIN” value [5] was 23.4 pg and the “MEAN CORPUSCULAR HEMOGLOBIN CONCENTRATION” value [5] was 38.43 G/DL. For the same molecule, the “MEAN CORPUSCULAR VOLUME” value [5] was 60.87 fL, the MONOCYTE [5] was 1% and the NEUTROPHIL [5] was 17.33%. The “PLATELET COUNT” value [5] was 1046 x10E3/uL, the “ALANINE AMINOTRANSFERASE” value [5] was 43.67 u/L and the “ALKALINE PHOSPHATASE” value [5] was 361.33 u/L. The “ASPARTATE AMINOTRANSFERASE” value [5] was 61.67 u/L, the “BLOOD UREA NITROGEN” value [5] was 16.33 mg/dL and the CHLORIDE [5] was 108 MEQ/L. For the same molecule, the CHOLESTEROL [5] was 85.33 mg/dL, the “CREATINE PHOSPHOKINASE” value [5] was 131.33 u/L and the CREATININE [5] was 0.57 mg/dL. It also gave a GLUCOSE [5] of 153.33 mg/dL, a PHOSPHORUS [5] of 11.9 mg/dL and a POTASSIUM [5] of 7.33 MEQ/L. The SODIUM [5] was 154.33 MEQ/L, the “TOTAL BILIRUBIN” value [5] was 0.27 mg/dL and the “TOTAL PROTEIN” value [5] was 6.13 G/DL. For the same molecule, the BASOPHIL [6] was 0%, the EOSINOPHIL [6] was 0.67% and the “ERYTHROCYTE COUNT” value [6] was 6.78 x10E6/uL. For the same molecule, the HEMATOCRIT [6] was 41.33%, the HEMOGLOBIN [6] was 16.27 G/DL and the “LEUKOCYTE COUNT” value [6] was 12.7 x10E3/uL. The LYMPHOCYTE [6] was 89.67%, the “MEAN CORPUSCULAR HEMOGLOBIN” value [6] was 24.13 pg and the “MEAN CORPUSCULAR HEMOGLOBIN CONCENTRATION” value [6] was 39.43 G/DL. For the same molecule, the “MEAN CORPUSCULAR VOLUME” value [6] was 61.1 fL, the MONOCYTE [6] was 0.33% and the NEUTROPHIL [6] was 9.33%. The “PLATELET COUNT” value [6] was 1299 x10E3/uL, the “ALANINE AMINOTRANSFERASE” value [6] was 60.33 u/L and the “ALKALINE PHOSPHATASE” value [6] was 306.67 u/L. For the same molecule, the “ASPARTATE AMINOTRANSFERASE” value [6] was 59.67 u/L, the “BLOOD UREA NITROGEN” value [6] was 14.67 mg/dL and the CHLORIDE [6] was 107 MEQ/L. For the same molecule, the CHOLESTEROL [6] was 96.67 mg/dL, the “CREATINE PHOSPHOKINASE” value [6] was 136 u/L and the CREATININE [6] was 0.5 mg/dL. For the same molecule, the GLUCOSE [6] was 158 mg/dL, the PHOSPHORUS [6] was 11.83 mg/dL and the POTASSIUM [6] was 6.7 MEQ/L. For the same molecule, the SODIUM [6] was 155.67 MEQ/L, the “TOTAL BILIRUBIN” value [6] was 0.2 mg/dL and the “TOTAL PROTEIN” value [6] was 6.6 G/DL.
